Reference: EP1469074B1, “Human calcium channel compositions and methods” (priority 1991, dated 1993)

How the values were obtained:
[1] = test system: human neuronal calcium channel α2 and β1 subunits, expressed in Xenopus laevis oöcytes; test: Two-electrode voltage clamp of barium currents in Xenopus laevis oöcytes injected with α2 and β1 transcripts (no α1D; comparison); format: cell-based; details: Bay K 8644; n=11
[2] = test system: human neuronal calcium channel α1D and α2 subunits, expressed in Xenopus laevis oöcytes; test: Two-electrode voltage clamp of barium currents in Xenopus laevis oöcytes injected with α1D and α2 transcripts; format: cell-based; details: Bay K 8644; very small currents (15-30 nA); holding potential -90 mV
Text: Plasmids pVDCC III.RBS(A), containing of pcDNA1 and the α1D cDNA that begins with a ribosome binding site and the eighth ATG codon of the coding sequence (see Example III.A.3.d), plasmid pHBCaCHα1A containing of pcDNA1 and an α2 subunit cDNA (see Example IV), and plasmid pHBCaCHβ1bRBS (A) containing pcDNA1 and the β1 DNA lacking intron sequence and containing a ribosome binding site (see Example III), were linearized by restriction digestion. The α1D cDNA- and α2 subunit-encoding plasmids were digested with XhoI, and the β1 subunit-encoding plasmid was digested with EcoRV. The DNA insert was transcribed with T7 RNA polymerase.

[3] = test system: human neuronal calcium channel α1D (SEQ ID No. 1), α2 (SEQ ID No. 11) and β1 (SEQ ID No. 9) subunits, expressed in HEK 293 cells; test: Whole-cell patch clamp of barium currents in transiently transfected HEK 293 cells; format: cell-based; details: 1 µM Bay K 8644
Experimental: Pflugers Arch. 391:85-100].
Two days after transient transfection of HEK 293 cells with α1, α2 and β1 subunit-encoding cDNA and the lacZ gene, individual transfectants were assayed for voltage-dependent barium currents. The currents in nine transfectants were recorded.

[4] = test system: human neuronal calcium channel α1D (SEQ ID No. 1), α2 (SEQ ID No. 11) and β1 (SEQ ID No. 9) subunits, stably expressed in HEK 293 cells; test: Whole-cell patch clamp of barium currents in stably transfected HEK 293 cells; details: Bay K 8644 1 µM

## COC(=O)C1=C(C)NC(C)=C([N+](=O)[O-])C1c1ccccc1C(F)(F)F (stereo not drawn) [Bay K 8644]
[1]
  sensitivity of inward barium currents to the compound: insensitive
[2]
  response of barium currents to the compound: little or no response
[3]; holding potential -90 mV, 15 mM Ba2+ bath, one transfectant
  effect on inward barium current: significantly enhanced in magnitude
[3]; membrane depolarized to 0 mV from holding potential -90 mV
  largest inward barium current in the presence of the compound: -160 pA
[4]; depolarized to -10 mV from holding potential -90 mV, approximately 35pA in its absence
  barium current during application of the compound: approximately 75 pA
[4]; same cell, series of depolarizing voltages
  shift of the current-voltage relation: about -10 mV
